Earlier results in US20110237609A1, “ANTIFOLATE COMPOSITIONS” (Chelsea Therapeutics, Inc., priority 2010, published 2011).

Columns and labels:
[1] = in words; b190 refers to US 20090253720
[2] = in words, background statement

Compound	solubility characteristics [1]	bioavailability [2]
C=C(CC(NC(=O)c1ccc(CCc2ccc3nc(N)nc(N)c3c2)cc1)C(=O)O)C(=O)O (stereo not drawn)	improved solubility characteristics in comparison to the dioic acid form	–
C=C(CC(NC(=O)c1ccc(CCc2ccc3nc(N)nc(N)c3c2)cc1)C(=O)O)C(=O)O (racemic) [compound of Formula (9), 2-{-4-[2-(2,4-diamino-quinazolin-6-yl)-ethyl]-benzoylamino}-4-methylene-pentanedioic acid]	low solubility	low bioavailability
